Tested on: S. sanguis
Test: ammonia production by S. sanguis at pH 4.0 (Ammonia Assay kit)
Type: cell-based
Conditions: 5 millimolar amino acid, 0.1% sucrose, pH 4.0, 37° C., 30 minutes
Procedure: An overnight culture of S. sanguis is grown at 37° C. in trypticase soy broth (Becton Dickinson, Sparks, Md.). The culture is centrifuged at 5,000 rpm for 5 minutes at 1 milliliter at a time into preweighed tubes in order to accumulate approximately 5 milligrams of wet pellet weight. The pellet is then resuspended into 20 millimolar potassium phosphate buffer (JT Baker. Phillipsburg, N.J.), pH 4.0, to simulate a stressed environment for the bacterial cell where ammonia would be produced for survival. The final concentration is 5 milligram per milliliter. To this final concentration, a 5 millimolar final concentration of L-arginine, L-citrulline, or L-ornithine is added along with a 0.1% final concentration of sucrose (VWR, West Chester, Pa.). This mixture is then incubated at 37° C. in a shaking water bath for 30 minutes before ammonia production is determined.
In order to analyze for ammonia, an Ammonia Assay kit is used from Diagnostic Chemicals Limited (Oxford, Conn.). The intended use of this specific kit is for the in vitro quantification of ammonia in plasma, but the procedure is modified in order to determine and quantity the ammonia production in plaque and/or bacteria.

SMILES	Ammonia (ppm) (Mean of 6 separate trials)	Ammonia (ppm) (Trial 1)	Ammonia (ppm) (Trial 2)	Ammonia (ppm) (Trial 3)	Ammonia (ppm) (Trial 4)	Ammonia (ppm) (Trial 5)	Ammonia (ppm) (Trial 6)
N=C(N)NCCC[C@H](N)C(=O)O [L-Arginine, L-arginine]	1.06 ppm	0.509 ppm	0.866 ppm	2.20 ppm	1.62 ppm	0.5 ppm	0.679 ppm
NC(=O)NCCC[C@H](N)C(=O)O [L-Citrulline, L-citrulline]	0.951 ppm	0.185 ppm	0.346 ppm	0.332 ppm	0.194 ppm	0.226 ppm	0.951 ppm
NCCC[C@H](N)C(=O)O [L-Ornithine, L-ornithine]	0.134 ppm	0.185 ppm	0.260 ppm	0.047 ppm	0.0 ppm	0.181 ppm	0.135 ppm

From US20100330003A1, “ORAL CARE PRODUCT AND METHODS OF USE AND MANUFACTURE THEREOF” (Colgate-Palmolive Company, priority 2008, published 2010)
